Like-named read-outs stand apart in the source and are kept apart here.
Key:
[1] = pharmacokinetic study of GJG-derived compounds in rat plasma (LC-MS/MS); assay type: in vivo; conditions: for time for which the high plasma concentration was maintained: after oral administration of GJG; for time at which maximum plasma concentration (Cmax) was reached: after oral administration of GJG 1.0 g/kg; for Cmax / Tmax: rat plasma after oral GJG 1.0 g/kg, mean ± S.D.
Description: Rats cannulated in the jugular vein were fasted for more than 16 hours with access to water. At the time of 0.083, 0.25, 0.5, 1, 2, 4 and 8 hours after oral administration of GJG (1.0 g/10 mL/kg), blood samples were collected with a heparin-coated syringe and centrifuged at 3000 rpm for 15 minutes at 4 °C. The plasma samples were pretreated by precipitating plasma protein with an organic solvent or by solid-phase extraction and injected into the LC-MS/MS system for analysis. Components of GJG in plasma were measured by a QTRAP®5500 system (AB SCIEX, Tokyo, Japan) equipped with an Agilent 1260 HPLC system (binary pump, online degasser, auto plate-sampler and column oven; Agilent Technologies, Tokyo, Japan). The lower limits for quantification were 0.001 ng/mL for benzoylaconine, benzoylmesaconine, benzoylhypaconine; 0.002 ng/mL for 14-anisoylaconine; 0.2 ng/mL for loganin and morroniside; 0.5 ng/mL for paeoniflorin; and 5 ng/mL for catalpol. Cmax and time to reach maximum plasma concentration (Tmax) as pharmacokinetic parameters were calculated based on the plasma concentration of each compound by Phoenix WinNonlin (version 6.3; Certara L.P., St. Louis, MO, USA).

[2] = test system: SHSY-5Y cells; set-up: method as in PMID 21241762, PMID 19379729, PMID 24263411; conditions: cited from earlier work
[3] = test system: neuro2A cells; conditions: for oxaliplatin-induced ROS generation: co-administration with oxaliplatin, 100 μM (first screening), 1–100 μM (second screening), 1 h; for ROS generation in neuro2A cells by metabolites of oxaliplatin: data not shown; for oxaliplatin-induced ROS generation, effect of antioxidants: Supplementary Figure S1

time at which maximum plasma concentration (Cmax) was reached [1] [min]	Cmax ([1]; read-out: Cmax) [ng/mL]	Tmax ([1]; read-out: Tmax) [min]	Structure (SMILES)	oxaliplatin-induced ROS generation [3]	Cmax [1] [ng/mL]	Tmax [1] [min]	other results
30	53.7 ± 26.9	40.2 ± 15.6	COC(=O)C1=CO[C@@H](O[C@@H]2O[C@H](CO)[C@@H](O)[C@H](O)[C@H]2O)[C@@H]2[C@H](C)O[C@@H](O)C[C@H]12 [Morroniside, morroniside]	significantly decreased	–	–	time for which the high plasma concentration was maintained [1]: 4 h; ROS production induced by H2O2 or amyloid β 25–35 peptide [2]: attenuate ROS production; rank of anti-ROS action among active components ([3]; among LO, MO, PF and 14-AA): strongest action
–	–	–	[Cl][Pt+2][Cl].[NH-]C1CCCCC1[NH-] (centres unmarked) [Pt(dach)Cl2, dichloro (1,2-diaminocyclohexane) platinum]	–	–	–	ROS generation in neuro2A cells by metabolites of oxaliplatin [3]: increased ROS generation
–	–	–	N[C@@H](CCC(=O)N[C@@H](CS)C(=O)NCC(=O)O)C(=O)O [glutathione]	–	–	–	oxaliplatin-induced ROS generation, effect of antioxidants [3]: inhibited
–	–	–	CCN1C[C@]2(COC)[C@H](O)C[C@H](OC)C34C1C([C@H](OC)[C@@H]32)[C@]1(O)[C@@H]2[C@H]4C[C@@](O)([C@@H]2OC(=O)c2ccc(OC)cc2)[C@@H](OC)[C@@H]1O [14-Anisoylaconine, 14-anisoylaconine]	significantly decreased	0.009 ± 0.000	18.6 ± 7.8	–
60	282 ± 119	60 ± 33	OC[C@H]1O[C@@H](O[C@@H]2OC=C[C@H]3[C@H](O)[C@@H]4O[C@]4(CO)[C@@H]23)[C@H](O)[C@@H](O)[C@@H]1O [Catalpol, catalpol]	–	–	–	time for which the high plasma concentration was maintained [1]: 4 h
–	–	–	CC(=O)N[C@@H](CS)C(=O)O [N-acetyl cysteine]	–	–	–	oxaliplatin-induced ROS generation, effect of antioxidants [3]: inhibited
–	–	–	COC[C@@]12CC[C@H](OC)[C@]34C([C@H]([C@H](OC)[C@H]13)[C@]1(O)[C@H]3[C@@H](OC(=O)c5ccccc5)[C@](O)(C[C@H]34)[C@@H](OC)[C@@H]1O)N(C)C2 [Benzoylhypaconine, benzoylhypaconine]	–	0.013 ± 0.001	30 ± 0	–
–	–	–	COC[C@]12CN(C)C3[C@@H]4[C@H](OC)[C@H]1[C@@]3([C@@H](OC)C[C@H]2O)[C@@H]1C[C@@]2(O)[C@H](OC(=O)c3ccccc3)[C@@H]1[C@]4(O)[C@@H](O)[C@@H]2OC [Benzoylmesaconine, benzoylmesaconine]	–	0.041 ± 0.006	26.4 ± 7.8	–
30	9.1 ± 1.2	34.8 ± 12	C[C@@]12C[C@@]3(O)O[C@@H](O1)[C@]1(COC(=O)c4ccccc4)[C@H]3C[C@@]12O[C@@H]1O[C@H](CO)[C@@H](O)[C@H](O)[C@H]1O [Paeoniflorin, paeoniflorin]	significantly decreased	–	–	ROS production induced by H2O2 or amyloid β 25–35 peptide [2]: attenuate ROS production
–	–	–	O=C(O)C(=O)O [oxalate]	–	–	–	ROS generation in neuro2A cells by metabolites of oxaliplatin [3]: did not
30	43.7 ± 25.7	34.8 ± 12	COC(=O)C1=CO[C@@H](O[C@@H]2O[C@H](CO)[C@@H](O)[C@H](O)[C@H]2O)[C@@H]2[C@@H](C)[C@@H](O)C[C@H]12 [Loganin, loganin]	significantly decreased	–	–	time for which the high plasma concentration was maintained [1]: 4 h; ROS production induced by H2O2 or amyloid β 25–35 peptide [2]: attenuate ROS production
–	–	–	CCN1C[C@]2(COC)[C@H](O)C[C@H](OC)[C@@]34[C@@H]5C[C@@]6(O)[C@H](OC(=O)c7ccccc7)[C@@H]5[C@@](O)([C@@H]([C@H](OC)[C@H]23)[C@@H]14)[C@@H](O)[C@@H]6OC [Benzoylaconine, benzoylaconine]	–	0.012 ± 0.002	30 ± 0	–

From PMC4635352, “Preventive effect of oral goshajinkigan on chronic oxaliplatin-induced hypoesthesia in rats” (Scientific Reports, 2015)
